Like-named read-outs stand apart in the source and are kept apart here.
Legend:
[1] = test system: Southern root-knot nematode (Meloidogyne incognita); test: Root-knot index on tomato seedlings in soil contaminated with Southern root-knot nematode (Test Example 3); type: in vivo; settings: 3% granule, checked 25 days after transplanting
Procedure: A predetermined quantity of a 3% granule of each compound was mixed with a soil contaminated with Southern root-knot nematode (Meloidogyne incognita). 2 days after treatment of the compound, 3 to 4 leaf stage tomato seedlings were transplanted, and the root-knot index was checked 25 days later.
The root-knot index was determined with the following standard for nemotoidal evaluation.
2 Moderate number of root-knots found
4 Very many root-knots found

[2] = test system: Green rice leafhopper (Nephotettix cincticeps); test: Mortality of Green rice leafhopper female adults on pot-grown rice plants treated with a 1000 ppm suspension (Test Example 1); type: in vivo
Procedure: 10 ml of a 1000 ppm suspension of each sample compound (30% wettable powder) was poured into a pot in which rice plant (1.5 leaf stage) was grown, and the pot was placed in a greenhouse enclosed by glass. 3 days after applying the sample compound, the rice plant was covered by a cylindrical metal netting having a diameter of 7.5 cm and a height of 40 cm and 10 female adults of Green rice leafhopper (Nephotettix cincticeps) were released in the netting. The numbers of living and dead insects were checked 48 hours after applying. The test was repeated twice.

[3] = test system: second instar larvae; test: Mortality of second instar larvae on pot-grown cabbage treated with a 1000 ppm suspension (Test Example 2); type: in vivo
Procedure: 30 ml of a 1000 ppm suspension of each sample compound (30% wettable powder) was poured into a pot in which cabbage (2 to 3 leaf stage) was grown, and the pot was placed in a greenhouse enclosed by glass. 3 days after applying the sample compound, the cabbage was covered by a cylindrical metal netting having a diameter of 7.5 cm and a height of 20 cm and 10 second instar larvae were released in the netting. 48 hours after applying the numbers of living and dead insects were checked. The test was repeated twice.

[4] = Acute oral toxicity in mice (Toxicity Test Example); settings: mouse, in vivo, male mice, 7 days after administration, Litchfield-Wilcoxon Method
Procedure: Representative examples of the compound of this invention were administered orally to mice (.male.) and the acute toxicities thereof were tested. LD50 was calculated from the percentage of dead mice according to the Litchfield-Wilcoxon Method 7 days after the administration.

[5] = test system: warm-blooded animals and fishes; settings: prior art statement; cited from earlier work

| SMILES | Root-Knot Index ([1]; Active Ingredient 250 g/a) | Root-Knot Index ([1]; Active Ingredient 500 g/a) | mortality at 1000 ppm ([2]; 48 h) | mortality at 1000 ppm ([3]; 48 h) | LD50 at 168 h [4] | toxicity to warm-blooded animals and fishes [5] | mortality at 1000 ppm ([2]; 10 ml of 1000 ppm suspension (30% wettable powder) per pot, insects released 3 days after applying, checked at 48 hours, repeated twice, read-out: Mortality) | mortality at 1000 ppm ([3]; 30 ml of 1000 ppm suspension (30% wettable powder) per pot, larvae released 3 days after applying, checked at 48 hours, repeated twice, read-out: Mortality) |
| --- | --- | --- | --- | --- | --- | --- | --- | --- |
| CN(C(=O)NS(=O)(=O)Cl)C(=O)Oc1cccc2c1OC(C)(C)C2 [Compound No. 1, 2,3-Dihydro-2,2-dimethylbenzofuran-7-yl N-(chlorosulfonylcarbamoyl) N-methylcarbamate] | 2 | 1 | 100% | 100% |  |  |  |  |
| CNS(=O)(=O)NC(=O)N(C)C(=O)Oc1cccc2c1OC(C)(C)C2 [Compound No. 2, 2,3-Dihydro-2,2-dimethylbenzofuran-7-yl N-(methylsulfamoylcarbamoyl) N-methylcarbamate] | 3 | 2 | 100% | 100% |  |  |  |  |
| CCNS(=O)(=O)NC(=O)N(C)C(=O)Oc1cccc2c1OC(C)(C)C2 [Compound No. 3, 2,3-Dihydro,2,2-dimethylbenzofurane-7-yl N-(ethylsulfamoylcarbamoyl) N-methylcarbamate] | 2 | 1 | 100% | 100% | 170 mg/kg |  |  |  |
| CC(C)NS(=O)(=O)NC(=O)N(C)C(=O)Oc1cccc2c1OC(C)(C)C2 [Compound No. 4] | 2 | 1 | 100% | 100% |  |  |  |  |
| CCCCNS(=O)(=O)NC(=O)N(C)C(=O)Oc1cccc2c1OC(C)(C)C2 [Compound No. 5, 2,3-dihydro-2,2-dimethylbenzofuran-7-yl N-(butylsulfamoylcarbamoyl) N-methylcarbamate] | 2 | 1 | 100% | 100% | 200 mg/kg |  |  |  |
| CNC(=O)Oc1cccc2c1OC(C)(C)C2 [Control, 2,3-dihydro-2,2-dimethylbenzofuran-7-yl N-methyl-carbamate] |  |  |  |  |  | extremely toxic to warm-blooded animals and fishes |  |  |
| CNC(=O)Oc1cccc2c1OC(C)(C)C2 [Control] |  |  |  |  | 5 mg/kg |  | 100% | 100% |
| C#CCNS(=O)(=O)NC(=O)N(C)C(=O)Oc1cccc2c1OC(C)(C)C2 [compound 7, 2,3-dihydro-2,2-dimethylbenzofuran-7-yl N-(propargylsulfamoylcarbamoyl) N-methylcarbamate] | 2 | 1 | 100% | 100% |  |  |  |  |
| CN(C(=O)NS(=O)(=O)Nc1ccccc1Cl)C(=O)Oc1cccc2c1OC(C)(C)C2 [compound 8] | 3 | 2 | 90% |  |  |  |  |  |
| COc1ccccc1NS(=O)(=O)NC(=O)N(C)C(=O)Oc1cccc2c1OC(C)(C)C2 [compound 9] | 3 | 2 | 90% |  |  |  |  |  |
| COC(=O)c1ccccc1NS(=O)(=O)NC(=O)N(C)C(=O)Oc1cccc2c1OC(C)(C)C2 [compound 10] | 2 | 1 | 90% |  |  |  |  |  |
| CCOC(=O)c1ccc(NS(=O)(=O)NC(=O)N(C)C(=O)Oc2cccc3c2OC(C)(C)C3)cc1 [compound 11] | 3 | 2 | 90% |  |  |  |  |  |
| CN(C(=O)NS(=O)(=O)Nc1nccs1)C(=O)Oc1cccc2c1OC(C)(C)C2 [compound 12] | 3 | 2 | 100% |  |  |  |  |  |
| CN(C(=O)NS(=O)(=O)Nc1ccccn1)C(=O)Oc1cccc2c1OC(C)(C)C2 [compound 13] | 3 | 2 | 100% |  |  |  |  |  |
| CONS(=O)(=O)NC(=O)N(C)C(=O)Oc1cccc2c1OC(C)(C)C2 [compound 14, 2,3-dihydro-2,2-dimethylbenzofuran-7-yl N-(methoxysulfamoylcarbamoyl) N-methylcarbamate] | 3 | 2 | 100% |  |  |  |  |  |
| CCCNS(=O)(=O)NC(=O)N(C)C(=O)Oc1cccc2c1OC(C)(C)C2 [compound 15, 2,3-dihydro-2,2-dimethylbenzofuran-7-yl N-(propylsulfamoylcarbamoyl) N-methylcarbamate] | 2 | 1 | 100% | 100% |  |  |  |  |
| CCC(C)NS(=O)(=O)NC(=O)N(C)C(=O)Oc1cccc2c1OC(C)(C)C2 (centres unmarked) [compound 16] | 2 | 1 | 100% | 100% |  |  |  |  |
| CN(C(=O)NS(=O)(=O)NC(C)(C)C)C(=O)Oc1cccc2c1OC(C)(C)C2 [compound 17] | 2 | 1 | 100% | 100% |  |  |  |  |
| CN(C(=O)NS(=O)(=O)NC1CCCC1)C(=O)Oc1cccc2c1OC(C)(C)C2 [compound 18] |  |  | 80% |  |  |  |  |  |
| CN(C(=O)NS(=O)(=O)NC1CCCCC1)C(=O)Oc1cccc2c1OC(C)(C)C2 [compound 19] |  |  | 80% |  |  |  |  |  |
